According to US12121525B2, “Methods for treating GI syndrome and graft versus host disease” (Sloan Kettering Institute for Cancer Research, priority 2007, dated 2024):

Assays:
C57BL/6 splenocytes [1] = assay: MLR-primed CTL-induced splenocyte lysis (51Cr release); assay type: cell-based, mouse; conditions: 500 nM
Description: To show the generic role of target cell ASMase in T cell-induced lysis, we used two standardized assays for T cell function; MLR-primed CTL-induced splenocyte lysis (FIG. 17) and in vitro activation-induced cell death (AICD) of T cells (FIG. 18). The role of target cell ASMase was assessed in an in vitro activated MLR, in which C57BL/6 splenocyte target cells of asmase^+/+ or asmase^−/− genotype were stimulated for 48 hrs with mitogen, washed and chromium labeled. These cells were then coincubated with effector Balb/c splenocytes activated for 5 days by culture with irradiated C57BL/6 splenocytes. Chromium release was quantified and the % lysis was calculated. […] Washed splenocytes cells were coincubated with increasing ratios of activated effector Balb/c T cells, and ^51Cr release was quantified 6 hour thereafter. […]
To evaluate a potential generic role for target cell ASMase in platform generation in T cell-induced lysis, we tested two standardized assays for T cell-mediated cytolysis, MLR-primed CTL-induced splenocyte lysis, and in vitro AICD of T cells. […] Furthermore, MLR-primed CTLs induced 43.2±6.5% asmase^+/+ splenocyte lysis at an effector:target ratio of 50:1 (FIG. 19B), attenuated to 7.3±2.5% lysis in asmase^−/− target cells, as quantified by ^51Cr-release assay. […]

splenic T cells [2] = assay: Activation-induced cell death (AICD) assay, T cell apoptosis; assay type: cell-based, mouse; conditions: 500 nM; 16 hr
Source text: To define a role for target cell ASMase in AICD, asmase^+/+, asmase^−/− or MRL.1pr (FasR^−/−) T cells were stimulated for 24 hr with 10 microgam/ml ConA, washed, rested in medium containing 20 U/ml rIL-2 for 24 hr, and finally AICD was initiated by restimulation in medium containing 20 U/ml rIL-2 and increasing concentrations of plate bound anti-CD3 mAb for 24 hr. AICD induction by anti-CD3 mAb conferred ceramide-rich platform generation 4 hr following stimulation (FIG. 19D), evident in 26.4±1.6% of the population of asmase^+/+ T cells compared to 5.1±1.0% of asmase^−/− T cells (p<0.005). Confocal analysis identified colocalization of the sphingolipid GM1 (FIG. 19E) and Fas within ceramide-rich platforms in asmase^+/+ T cells.
To characterize the impact of platform generation on AICD, asmase^+/+ and asmase^−/− T cells were induced to undergo AICD and apoptosis was quantified 16 hr thereafter. Apoptosis in asmase^+/+ T cells was anti-CD3 mAb dose-dependent, reaching 32.9±5.2% apoptosis 16 hr post induction (FIG. 19F). […]
Harvested splenocytes were enriched for T lymphocytes by nylon wool passage, resulting in >90% purity based upon FITC-CD3 mAb staining by flow cytometry. […] Cells were subsequently fixed, stained with 25 μl of 24 μg/ml bis-benzimide trihydrochloride solution (Hoechst #33258; Sigma-Aldrich, Milwaukee Wisc.) and apoptosis was quantified by fluorescence microscopy, as above.

splenic T cells [3] = assay: Platform generation in T cells after AICD induction; conditions: 500 nM; not shown
C57BL/6 splenocytes [4] = assay: Platform generation on target splenocytes coincubated with MLR-primed CTLs; conditions: 500 nM

CCCCCCCCCCCCC/C=C/[C@@H](O)[C@H](CO)NC(=O)CCCCCCCCCCCCCCC [C16-ceramide] was tested, and the “CTL-induced lysis of asmase−/− target splenocytes” value (C57BL/6 splenocytes [1]) was “restored”, the “apoptosis of asmase−/− T cells stimulated to undergo AICD” value (splenic T cells [2]) was “completely restored” and the “platform generation in asmase−/− T cells stimulated to undergo AICD” value (splenic T cells [3]) was “completely restored”. For the same compound, the “platform generation on asmase−/− target splenocytes” value (C57BL/6 splenocytes [4]) was “restored”.
